Laboratory results: US8298766B2, “Fluorescent dyes, methods of synthesis and applications thereof” (priority 2010, dated 2012)

Assays:
[1] = system: live MCF-7 cells (human breast cancer cells); assay: Imaging of live MCF-7 cells stained with compound by confocal laser scanning microscopy; format: cell-based; details: 30 min at 37° C., excitation Cy5 channel (633 nm)
Protocol: (§1) FIG. 6A is the white light image of live MCF-7 cells (human breast cancer cells) stained with compound A, 6B is the fluorescence image of live MCF-7 cells stained with compound A. The concentration of compound A is 2 μM. The equipment used is a confocal laser scanning microscope (TCS-SP2). Excitation channel: Cy5 (633 nm).
as §1, with “FIG. 7A” for “FIG. 6A”, “compound D, 7B” for “compound A, 6B”, “compound D.” for “compound A.”, “compound D” for “compound A”, “is 1.5” for “is 2”
as §1, with “FIG. 8A” for “FIG. 6A”, “compound E, and 8B” for “compound A, 6B”, “compound E.” for “compound A.”, “compound E” for “compound A”, “is 3” for “is 2”
The equipment used is a confocal laser scanning microscope (TCS-SP2). Excitation channel: Cy5 (633 nm).
(§2) MCF-7 cells are cultured in DEME (Invitrogen) supplemented with 10% FBS (Invitrogen). One day before imaging, cells are seeded in 24-well flat-bottomed plates. The next day, the live cells were incubated with 2 μM of compound A for 30 min at 37° C. under 5% CO2 and then washed with phosphate-buffered saline (PBS) three times, and then the fluorescence imaging was observed under confocal laser scanning microscopy with a 100× objective lens (excited with Cy5 channel). 1000× magnification was utilized in the imaging. The scale bar represents 20 μm. […] The equipment used is a confocal laser scanning microscope (TCS-SP2). Excitation channel: Cy5 (633 nm). The concentration of compound A is 2 μM.
as §2, with “with 1.5” for “with 2”, “compound D” for “compound A”, “(TCS-SP2). […]” for “(TCS-SP2). Excitation channel: Cy5 (633 nm). The concentration of compound A is 2 μM.”
MCF-7 cells are cultured in DEME (Invitrogen) supplemented with 10% FBS (Invitrogen). […] The next day, the live cells were incubated with 3 μM of compound E for 30 min at 37° C. under 5% CO2 and then washed with phosphate-buffered saline (PBS) three times, and then the fluorescence imaging was observed under confocal laser scanning microscopy with a 100× objective lens (excited with Cy5 channel). […]

calf thymus DNA [2] = assay: Fluorescence emission spectra in the absence and presence of calf thymus DNA in buffer solution; format: binding; details: dye 1 μM, calf thymus DNA 100 μM
Protocol: (§3) FIG. 1 is the comparison of fluorescence emission spectra of compound A with commercially available dye EB in the absence and presence of calf thymus DNA respectively in pH 7.36, 10 mM Tris-HCl buffer. The abscissa is wavelength (nm) and the ordinate is the relative fluorescence intensity. The equipments used are a UV-Vis spectrophotometer (Hp8453) and a spectrofluorophotometer (FP-6500). The concentrations of compound A, EB and calf thymus DNA are 1 μM, 1 μM and 100 μM respectively.
as §3, with “FIG. 2” for “FIG. 1”, “compound B” for “compound A”, “pH 7.4,” for “pH 7.36,”, “compound B,” for “compound A,”, “100 μM,” for “100 μM”
FIG. 3 is the comparison of fluorescence emission spectra of compound C with commercially available dye EB in the absence and presence of calf thymus DNA respectively in pH 7.24, 10 mM Tris-HCl buffer. The abscissa is wavelength (nm) and the ordinate is the relative fluorescence intensity. […]
Determinations of the fluorescence emission spectra of compound A and commercially available dye EB in the absence and presence of calf thymus DNA respectively in buffer solution
Solutions of compound A in DMSO and EB in water are separately prepared with the concentrations of 1 mM. 3 μL of each solution is diluted with 10 mM Tris-HCl buffer solution (pH 7.36) to 3 mL in a cuvette to determine its fluorescence intensity. Solution of calf thymus DNA in water is prepared, whose concentration is determined as 1.5 mM by the adsorption at 260 nm in spectrophotometry (using the molar absorption coefficients of ε260 nm=6600 M^−1 cm^−1). […]
Determinations of the fluorescence emission spectra of compound B and commercially available dye EB in the absence and presence of calf thymus DNA respectively in buffer solution […]

calf thymus DNA [3] = assay: Fluorescence intensity before and after addition of calf thymus DNA; format: binding; details: pH 7.0, 10 mM Tris-HCl buffer; dye 1 μM; calf thymus DNA 40 μg/mL
Protocol: (§4) The ordinate is the fluorescence increasing fold. The equipment used is a spectrofluorophotometer (FP-6500). […] The concentrations of calf thymus DNA and bovine serum albumin are both 40 μg/mL.
(§5) Finally each mixture of dye and BSA solution is diluted with pH 7.0, 10 mM Tris-HCl buffer solution to 3 mL and the fluorescence emission spectra are determined respectively after stabilization. […] Finally each mixture of dye and calf thymus DNA solution is diluted with pH 7.0, 10 mM Tris-HCl buffer solution to 3 mL and the fluorescence emission spectra are determined respectively after stabilization. […] The equipment used is a spectrofluorophotometer (FP-6500).

bovine serum albumin = bovine serum albumin (Bos taurus, UniProt P02769); assay: Fluorescence intensity before and after addition of bovine serum albumin; format: binding; details: pH 7.0, 10 mM Tris-HCl buffer; dye 1 μM; bovine serum albumin 40 μg/mL
Protocol: as §4, §5

Sequence of bovine serum albumin (P02769 25-607): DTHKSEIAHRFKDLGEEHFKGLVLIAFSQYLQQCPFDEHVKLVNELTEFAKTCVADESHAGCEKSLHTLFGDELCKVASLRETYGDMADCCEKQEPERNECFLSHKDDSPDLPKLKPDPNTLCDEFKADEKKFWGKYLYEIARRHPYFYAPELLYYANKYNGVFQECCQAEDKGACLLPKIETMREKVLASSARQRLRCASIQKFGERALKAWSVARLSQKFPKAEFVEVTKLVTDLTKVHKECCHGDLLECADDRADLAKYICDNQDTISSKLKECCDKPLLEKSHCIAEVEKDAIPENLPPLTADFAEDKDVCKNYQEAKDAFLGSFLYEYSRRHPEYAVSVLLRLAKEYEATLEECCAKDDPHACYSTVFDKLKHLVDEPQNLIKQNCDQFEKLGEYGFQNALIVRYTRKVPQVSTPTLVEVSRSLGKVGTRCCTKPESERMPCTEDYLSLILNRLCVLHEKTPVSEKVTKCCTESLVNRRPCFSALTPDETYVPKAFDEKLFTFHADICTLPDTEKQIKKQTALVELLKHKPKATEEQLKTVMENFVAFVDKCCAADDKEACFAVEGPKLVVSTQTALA

## CCCNCC[n+]1c(/C=C/C=C2\C=CN(CCCl)c3cc(C)ccc32)[se]c2ccccc21.[Br-] [compound E]
[1]; 3 μM
  staining pattern of live MCF-7 cells (fluorescence image): nucleus selective staining

## COc1ccc2c(c1)oc(/C=C/C=C1\C=CN(CCCN3CCCCC3)c3ccccc31)[n+]2CCCN1CCCCC1.[Br-] [compound B]
Calf thymus DNA [2]; pH 7.4, 10 mM Tris-HCl buffer
  fluorescence increase upon binding to calf thymus DNA (I/I0): 89 fold

## CC1(C)C(/C=C/C=C2\C=CN(Cc3ccccc3)c3ccccc32)=[N+](CCCNc2ccccc2)c2ccc(Cl)cc21.[Br-] [compound D]
[1]; 1.5 μM
  staining pattern of live MCF-7 cells (fluorescence image): nucleus selective staining

## CCN(CC)CCCC[n+]1c(/C=C/C=C2\C=CN(CC)c3ccccc32)sc2ccccc21.[I-] [compound A]
[1]; 2 μM
  staining pattern of live MCF-7 cells (fluorescence image): nucleus selective staining
Calf thymus DNA [3]
  fluorescence intensity increase upon binding to calf thymus DNA: 45.5 fold
Calf thymus DNA [2]; pH 7.36, 10 mM Tris-HCl buffer
  fluorescence increase upon binding to calf thymus DNA (I/I0): 55 fold
Bovine serum albumin
  fluorescence intensity increase with BSA solution: 1.4 fold

## NCCNCCC[n+]1c(/C=C/C=C2\C=CN(CCO)c3ccccc32)sc2ccccc21 [compound C]
Calf thymus DNA [2]; pH 7.24, 10 mM Tris-HCl buffer
  fluorescence increase upon binding to calf thymus DNA (I/I0): 75 fold

## CCN1C=C/C(=C\C=C\c2sc3ccccc3[n+]2CC)c2ccccc21 [M1, reference compound]
[1]; 2 μM
  staining pattern of live MCF-7 cells (fluorescence image): simultaneously nucleus and cytoplasm staining
Calf thymus DNA [3]
  fluorescence intensity increase upon binding to calf thymus DNA: 40 fold
